In experiment [1] the target is T1, huPPARγ (Homo sapiens, UniProt P37231).
T1 sequence (P37231 1-505): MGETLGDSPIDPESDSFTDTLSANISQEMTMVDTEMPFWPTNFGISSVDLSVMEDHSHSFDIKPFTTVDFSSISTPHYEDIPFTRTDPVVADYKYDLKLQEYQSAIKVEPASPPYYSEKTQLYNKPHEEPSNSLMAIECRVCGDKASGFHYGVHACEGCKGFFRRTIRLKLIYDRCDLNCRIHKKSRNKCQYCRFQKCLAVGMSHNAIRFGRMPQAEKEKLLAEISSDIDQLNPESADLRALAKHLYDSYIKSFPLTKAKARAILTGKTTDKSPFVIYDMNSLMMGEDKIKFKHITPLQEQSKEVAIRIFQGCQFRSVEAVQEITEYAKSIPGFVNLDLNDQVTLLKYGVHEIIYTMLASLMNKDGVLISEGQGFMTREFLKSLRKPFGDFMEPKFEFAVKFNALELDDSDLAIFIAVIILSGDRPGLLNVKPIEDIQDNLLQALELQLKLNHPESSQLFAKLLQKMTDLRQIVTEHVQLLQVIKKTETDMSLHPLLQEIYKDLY
T1 sequence (P19793 1-462 partner): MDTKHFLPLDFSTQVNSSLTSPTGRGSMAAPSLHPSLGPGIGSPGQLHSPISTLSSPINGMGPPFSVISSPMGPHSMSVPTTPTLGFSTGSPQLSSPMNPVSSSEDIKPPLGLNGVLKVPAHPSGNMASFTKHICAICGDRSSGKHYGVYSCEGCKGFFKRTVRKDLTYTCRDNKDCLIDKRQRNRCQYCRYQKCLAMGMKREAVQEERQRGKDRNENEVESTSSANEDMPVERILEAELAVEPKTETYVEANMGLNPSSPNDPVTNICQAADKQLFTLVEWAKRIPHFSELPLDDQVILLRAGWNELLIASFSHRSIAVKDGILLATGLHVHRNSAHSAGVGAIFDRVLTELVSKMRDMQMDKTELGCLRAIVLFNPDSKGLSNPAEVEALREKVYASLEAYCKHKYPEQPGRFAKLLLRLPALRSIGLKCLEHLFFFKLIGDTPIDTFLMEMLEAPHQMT
The experiment is described as follows: DNA-dependent binding (ABCD binding), SPA, huPPARγ. To be noted: displacement of tritium-labeled PPARγ agonist radioligand. The protocol:
(§1) DNA-dependent binding (ABCD binding) was carried out using SPA technology with PPAR receptors. Tritium-labeled PPARγ and PPARα agonists were used as radioligands for generating displacement curves and IC50 values with compounds of the invention. Cotransfection assays were carried out in CV-1 cells. The reporter plasmid contained an acylCoA oxidase (AOX) PPRE and TK promoter upstream of the luciferase reporter cDNA. Appropriate PPARs and RXRα were constitutively expressed using plasmids containing the CMV promoter. […] In order to eliminate such interference, a GAL4 chimeric system was used in which the DNA binding domain of the transfected PPAR was replaced by that of GAL4, and the GAL4 response element was utilized in place of the AOX PPRE. Cotransfection efficacy was determined relative to PPARα agonist and PPARβ agonist reference molecules. Efficacies were determined by computer fit to a concentration-response curve, or in some cases at a single high concentration of agonist (10 μM). For binding or cotransfection studies with receptors other than PPARs, similar assays were carried out using appropriate ligands, receptors, reporter constructs, etc., for that particular receptor.
(§2) These studies were carried out to evaluate the ability of compounds of the invention to bind to and/or activate various nuclear transcription factors, particularly huPPARα (“hu” indicates “human”) and huPPARγ. These studies provide in vitro data concerning efficacy and selectivity of compounds of the invention. Furthermore, binding and cotransfection data for compounds of the invention were compared with corresponding data for marketed compounds that act on either huPPARα or huPPARγ.

The target of experiment [2] is T2, huPPARα (Homo sapiens, UniProt Q07869).
T2 sequence (Q07869 1-468): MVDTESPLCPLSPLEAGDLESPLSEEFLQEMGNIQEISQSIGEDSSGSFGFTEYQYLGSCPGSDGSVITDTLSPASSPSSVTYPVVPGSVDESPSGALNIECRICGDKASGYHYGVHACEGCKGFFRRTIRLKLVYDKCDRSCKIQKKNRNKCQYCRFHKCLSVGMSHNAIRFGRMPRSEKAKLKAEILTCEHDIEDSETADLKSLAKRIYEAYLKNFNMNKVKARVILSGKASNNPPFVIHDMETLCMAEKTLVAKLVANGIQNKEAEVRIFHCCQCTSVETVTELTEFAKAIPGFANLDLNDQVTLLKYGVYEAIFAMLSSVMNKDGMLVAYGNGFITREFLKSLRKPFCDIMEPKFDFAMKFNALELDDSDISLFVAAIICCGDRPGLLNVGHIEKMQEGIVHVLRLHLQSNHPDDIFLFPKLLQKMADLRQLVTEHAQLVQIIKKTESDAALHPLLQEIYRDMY
T2 sequence (P19793 1-462 partner): T1 sequence (P19793 1-462 partner)
The experiment can be described thus: DNA-dependent binding (ABCD binding), SPA, huPPARα. To be noted: displacement of tritium-labeled PPARα agonist radioligand. The procedure: as §1, §2

In experiment [3] the target is T1, huPPARγ. The experiment is described as follows: Cotransfection assay in CV-1 cells, huPPARγ. The format is cell-based. The arrangement: expressed in transfected cells; host or cells: CV-1 cells. Conditions: AOX PPRE luciferase reporter, relative to agonist reference molecule, read-out: huPPARγ CTF Efficacy. The protocol: as §1, with “Tritium-labeled PPARγ and PPARα agonists were used as radioligands for generating displacement curves and IC50 values with compounds of the invention.” left out, “Cotransfection efficacy was determined relative to PPARα agonist and PPARβ agonist reference molecules.” left out
as §2

The test system of experiment [4] is huPPARα. The experiment is described as follows: Cotransfection assay in CV-1 cells, huPPARα (GAL4 chimeric system). The format is cell-based, human. To be noted: luciferase reporter, relative to PPARα agonist reference molecule. The protocol: DNA-dependent binding (ABCD binding) was carried out using SPA technology with PPAR receptors. Tritium-labeled PPARγ and PPARα agonists were used as radioligands for generating displacement curves and IC50 values with compounds of the invention. Cotransfection assays were carried out in CV-1 cells. The reporter plasmid contained an acylCoA oxidase (AOX) PPRE and TK promoter upstream of the luciferase reporter cDNA. Appropriate PPARs and RXRα were constitutively expressed using plasmids containing the CMV promoter. For PPARα and PPARβ, interference by endogenous PPARγ in CV-1 cells was an issue. In order to eliminate such interference, a GAL4 chimeric system was used in which the DNA binding domain of the transfected PPAR was replaced by that of GAL4, and the GAL4 response element was utilized in place of the AOX PPRE. Cotransfection efficacy was determined relative to PPARα agonist and […] reference molecules. Efficacies were determined by computer fit to a concentration-response curve, or in some cases at a single high concentration of agonist (10 μM). For binding or cotransfection studies with receptors other than PPARs, similar assays were carried out using appropriate ligands, receptors, reporter constructs, etc., for that particular receptor.
as §2
In general terms: Reporter assays use an easily measured gene product as a stand-in for the process of interest.

A word on the IC50: it is the midpoint of a concentration-inhibition curve.

On to `Cc1oc(-c2ccc(-c3ccccc3)cc2)nc1CCOc1ccc(OC(C)(C)C(=O)O)c(CC2CCCCC2)c1` [Example 25, 2-{4-[2-(2-Biphenyl-4-yl-5-methyloxazol-4-yl)-ethoxy]-2-cyclohexylmethyl-phenoxy}-2-methyl-propionic acid], for which the figures for the 50% inhibitory concentration (IC50) in experiment [1] and in experiment [2] were 81 nM and 125 nM, respectively. Besides, in experiment [3], the Emax came out at 71%. In addition, the “huPPARα CTF Efficacy” value in experiment [4] is reported as 104%.

As to `Cc1oc(-c2ccc(-c3ccc[nH]3)cc2)nc1CCOc1ccc(OC(C)(C)C(=O)O)cc1` [Example 18, 2-Methyl-2-[4-(2-{5-methyl-2-[4-(1H-pyrrol-2-yl)-phenyl]-oxazol-4-yl}-ethoxy)-phenoxy]propionic acid], the IC50 in experiment [1] was determined as 1790 nM; in experiment [2], 539 nM. In experiment [3], the Emax amounted to 145%. In addition, in experiment [4], the “huPPARα CTF Efficacy” value turned out to be 97%.

The values are drawn from patent US6417212B1, “Modulators of peroxisome proliferator activated receptors” (Eli Lilly & Company, priority 1999, dated 2002).
